Read-outs that look alike come from different tables or passages of the source.
Assays:
[1] = system: tetrabenazine induced ptosis; experiment: Tetrabenazine ptosis antagonism; format: in vivo; settings: Mus musculus, ip, 0.5 h; i.p., mice; tetrabenazine 40 mg/kg i.p. 30 min after test substance
Protocol: For insoluble substances the doses 0, 1/8, 1/32 and 1/128 of "i.^p. LD50" are used. 3 mice are used for each dose level. Thirty minutes after administration of test substance, tetrabenazine, 40 mg/kg, is injected i.p. Ptosis is evaluated 30 minutes after administration of tetrabenazine, the following rating scale being used: 0 = normal eyes, 1=1/4 closed eyes, 2 = 1/2 closed eyes, 3 = 3/4 closed eyes and 4 = completely closed eyes. Ptosis is evaluated 30 seconds after tilting the cage 3 times. The tilting is carried out in such a way that the animals slide along the floor of the cage.
The results are recorded as % inhibition of ptotic score calculated on the basis of the score of the control group. If ptotic score for the control group is < 10 the test is rejected and another is performed. The registration can also be done as an on line procedure.

potentiation of 5-HTP = experiment: 5-HTP potentiation (5-HTP syndrome); format: in vivo; settings: Mus musculus, ip, 0.5 h; i.p., mice; 5-HTP 100 mg/kg i.v. 30 min after test substance; read-out: 5-HTP potentation,ED50
Protocol: The test substance is given i.p. or p.o. in the doses 10, 10, 2.5, 0.63 and 0 mg/kg. Three mice are used for each dose level. One of the groups on the highest dose is used as control of the compounds own effect. […] Thirty minutes after administration of test substance, 5-HTP, 100 mg/kg i.v. is given (injection time 5-10 sec.). After this 5-HTP dose the animals remain unaffected. If the animals have been pretreated with a substance, which inhibits the re-uptake of 5-HT, a 5-HTP syndrome will occur. This is characterized by the following symptoms: 1) excitation, 2) tremor, and 3) abduction of the hind limbs.
After the administration of 5-HTP the animals are observed for 15 minutes and each animal is given one point for each symptom present. Thus, the maximal score for a group consisting of 3 mice is 9.
The results are stated as fractions: 0/9, 1/9, 2/9 ..... 8/9, 9/9, where 0, 1, 2 ..... 8, 9 are the number of points per group after the dose in question.

[2] = molecular target: T1, ^3H-DA uptake in striatal synaptosomes (Rattus norvegicus, UniProt P23977); experiment: biochemical; format: biochemical, Rats
T1 construct: the two corpura striata are dissected out and gently homogenized; from tissue; host or cells: rat corpus striatum, synaptosomal P2 fraction
Protocol: ^3H-DA uptake in striatal synaptosomes in vitro.
(§1) 0.32 M sucrose containing 1 mM Nialamide
Krebs-Ringer-phosphate buffer, pH 7.4
3,4-dihydroxyphenylethylamine [ethyl-1-^3H(N)] = ^3H-DA, spc. act. app. 15 Ci/mmol, New England Nuclear
(§2) Thomas Tissue Grinder, clearance 0.004-0.006 inch.
Rats are killed by a blow to their head, exsanguinated and their brains removed. The brain is placed on a precooled glassplate, and the two corpura striata are dissected out and gently homogenized in 40 volumes of ice cold 0.32 M sucrose containing 1 mM of nialamide using a hand homogenizer with teflon pestle. The P2-fraction (synaptosomal fraction) is obtained by centrifugation (600 g, 10 min., 25000 g, 55 min. 4 °C) and suspended in 40 volumes of a modified Krebs-Ringer-phosphate buffer, pH 7.4. To 200µl of the synaptosomal fraction on ice are added 3700 µl modified Krebs-Ringer-phosphate buffer - containing test compounds. After a preincubation at 37°C for 5 min. […] The incubation is terminated by filtering the samples under vacuum through Millipore filters with a wash of 5 ml buffer containing 10 µM of unlabelled DA. After solubilizing the filters in 1 ml of cellosolve the radioactivity is determined by liquid scintillation counting after the addition of 10 ml of Insta-Gel. The unspecific binding of ^3H-DA is determined by incubating control samples on ice instead of at 37 °C.
All experiments are performed in ttriplicate.
The mean of all control samples and ice samples are calculated.

[3] = molecular target: T2, ^3H-5-HT uptake in synaptosomes (Rattus norvegicus, UniProt P31652); experiment: Inhibition of 3H-5-HT uptake in synaptosomes in vitro; format: biochemical, Rats
T2 construct: Rest of the brain is gently homogenized (glass teflon homogenizer); from tissue; host or cells: rat brain without cerebellum, pons and medulla oblongata, synaptosomal P2 fraction
Protocol: Inhibition of ^3H-5-HT uptake in synaptosomes in vitro.
as §1
Krebs-Ringer-Phosphate buffer, pH 7.4
Millipore filters (HAWPO 2500, 0.45 µ)
5-hydroxy [G-^3H] tryptamine creatinine sulphate = ^3H-5-HT, spc. act. app. 10 Ci/mmol, The Radiochemical Centre, Amersham.
as §2
Rats are killed by a blow on the head and exsanguinated. The brain is quickly removed, rinsed for blood and placed on a cold plate. The cerebellum, pons and medulla oblongata are removed. Rest of the brain is gently homogenized (glass teflon homogenizer) in 40 volumes of ice cold 0.32 M of sucrose containing 1 mM of nialamide. The P2 fraction (synaptosomal fraction) is obtained by centrifugation (600 g, 10 min. and 25000 g, 55 min., 4°C) and suspended in 40 volumes of a modified Krebs-Ringer-Phosphate buffer, pH 7.4.
To 200µl of the synaptosomal suspension on ice are added 3700 µl modified Krebs-Ringer-phosphate buffer, pH 7.4, containing test substances. After preincubation at 37°C for 5 min., 100 µl of ^3H-5-HT (final concentration in the samples = 10 nM) are added and the samples are incubated for 10 min. at 37 °C. The incubation is terminated by filtering the samples under vacuum through Millipore filters with a wash of 5 ml buffer containing 10 µM of unlabelled 5-HT. After solubilizing the filters in I ml of cellosolve, 10 ml of Instagel are added, and the radioactivity is determined by liquid and scintillation counting. The unspecific binding and passive transport of ^3H-5-HT is determined by incubating control samples on ice instead of at 37°C. All experiments are performed in triplicate. The mean of all control samples are calculated.
The IC50- values are determined as the concentrations, at which the uptake are 50 per cent of the uptake in control sample -uptake in ice samples.

[4] = rat striatal synaptosomes, 3H-DA 12.5 nM, read-out: Uptake Inhibition IC50 DA
[5] = rat brain synaptosomes, 3H-5-HT 10 nM, read-out: Uptake Inhibition IC50 5-HT
[6] = read-out: Uptake Inhibition IC50 DA

T2 sequence (P31652 whole entry): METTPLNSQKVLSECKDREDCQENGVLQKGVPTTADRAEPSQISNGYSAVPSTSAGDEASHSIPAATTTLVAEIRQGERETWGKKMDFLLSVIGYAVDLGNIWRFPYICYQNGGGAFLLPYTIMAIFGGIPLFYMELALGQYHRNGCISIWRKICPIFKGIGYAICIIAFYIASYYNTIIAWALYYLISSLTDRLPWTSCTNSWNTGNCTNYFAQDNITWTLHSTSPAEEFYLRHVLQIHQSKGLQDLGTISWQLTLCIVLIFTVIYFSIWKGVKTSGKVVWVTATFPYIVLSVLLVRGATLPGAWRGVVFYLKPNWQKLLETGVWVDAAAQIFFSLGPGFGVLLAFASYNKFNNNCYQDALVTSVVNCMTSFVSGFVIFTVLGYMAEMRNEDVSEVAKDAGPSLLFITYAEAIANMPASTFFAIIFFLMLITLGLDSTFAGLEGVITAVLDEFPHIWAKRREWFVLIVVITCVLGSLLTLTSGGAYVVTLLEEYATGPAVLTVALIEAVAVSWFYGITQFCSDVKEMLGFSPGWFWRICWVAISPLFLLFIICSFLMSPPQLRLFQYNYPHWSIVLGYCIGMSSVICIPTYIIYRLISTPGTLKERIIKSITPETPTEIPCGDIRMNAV
T1 sequence (P23977 whole entry): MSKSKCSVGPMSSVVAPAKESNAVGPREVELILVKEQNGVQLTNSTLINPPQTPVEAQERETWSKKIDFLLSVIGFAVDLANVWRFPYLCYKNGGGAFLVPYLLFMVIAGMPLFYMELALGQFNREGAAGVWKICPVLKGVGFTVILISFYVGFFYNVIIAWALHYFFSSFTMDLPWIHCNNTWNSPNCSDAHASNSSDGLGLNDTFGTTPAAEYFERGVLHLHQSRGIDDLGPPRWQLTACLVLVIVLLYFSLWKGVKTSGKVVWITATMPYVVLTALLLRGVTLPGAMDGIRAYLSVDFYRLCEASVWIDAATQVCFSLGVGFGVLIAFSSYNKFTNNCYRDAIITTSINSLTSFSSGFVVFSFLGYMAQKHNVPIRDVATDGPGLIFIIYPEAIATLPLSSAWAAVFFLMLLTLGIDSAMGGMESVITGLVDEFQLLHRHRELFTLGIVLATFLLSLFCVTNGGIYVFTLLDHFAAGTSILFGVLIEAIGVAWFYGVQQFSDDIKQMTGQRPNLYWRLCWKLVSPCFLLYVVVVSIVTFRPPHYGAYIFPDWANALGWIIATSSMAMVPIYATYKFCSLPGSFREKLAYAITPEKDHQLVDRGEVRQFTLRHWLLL

Structure (SMILES) | ED50 [1] | ED50 (potentiation of 5-HTP) | IC50 [2, 4] | IC50 [3, 5] | IC50 [3] | IC50 [2] | IC50 [2, 6]
Cc1ccc2c(c1)[C@H](N(C)C)C[C@H]2c1ccc(F)cc1 (relative stereo) [Lu 18-125-c] | 41 µmol/kg | 44 µmol/kg | 100 nM | 9.8 nM | – | – | –
CN(C)C1CC(c2ccc(F)cc2)c2ccc(F)cc21 (stereo not shown) [Lu 18-147] | > 147 µmol/kg | 21 µmol/kg | 440 nM | 1.2 nM | – | – | –
CCN(CC)C1CC(c2ccc(F)cc2)c2ccc(F)cc21 (stereo not shown) [Lu 18-148-c] | > 118 µmol/kg | – | 1600 nM | 440 nM | – | – | –
CN(C)C1CC(O)(c2ccc(Cl)c(Cl)c2)c2ccccc21 (stereo not shown) [Lu 19-034, N,N-Dimethyl-3-(3,4-dichlorophenyl)-3-hydroxy-1-indanamine] | 9 µmol/kg | 11 µmol/kg | 130 nM | – | 1.7 nM | – | –
CN(C)C1CC(c2ccc(F)cc2)c2ccccc21 (stereo not shown) [Lu 19-008-c] | > 137 µmol/kg | 25 µmol/kg | 250 nM | – | – | – | –
CN(C)C1CC(c2ccc(Cl)cc2Cl)c2ccccc21 (stereo not shown) [Lu 18-137-c] | 23 µmol/kg | 19 µmol/kg | 860 nM | 0.03 nM | – | – | –
CCNC1CC(c2ccc(Cl)c(Cl)c2)c2ccccc21 (stereo not shown) [Lu 19-041-c] | > 117 µmol/kg | 24 µmol/kg | 62 nM | – | – | – | –
CN(C)C1CC(c2ccc(Cl)c(Cl)c2)c2ccccc21 (stereo not shown) [Lu 18-122-c] | 14 µmol/kg | 10 µmol/kg | 27 nM | 0.37 nM | – | – | –
CN(C)CCC=C1c2ccccc2CCc2ccccc21 [Amitrip-tyline, amitriptyline, reference compound] | 7 µmol/kg | – | – | – | – | 5400 nM | –
CSc1ccc2c(c1)[C@H](N(C)C)C[C@H]2c1ccc(F)cc1 (relative stereo) [Lu 19-016-c] | 35 µmol/kg | 39 µmol/kg | 170 nM | 4.5 nM | – | – | –
CN(C)C1CC(c2ccccc2)c2ccccc21 (stereo not shown) [Lu 19-025-c, reference compound] | > 143 µmol/kg | > 36 µmol/kg | – | 9.5 nM | – | – | 340 nM
CN(C)C1CC(c2ccc(F)cc2)c2ccc(C(F)(F)F)cc21 (stereo not shown) [Lu 18-150-c] | > 111 µmol/kg | 101 µmol/kg | 340 nM | 4.3 nM | – | – | –
CN(C)C1CC(c2ccc(N)cc2)c2ccc(F)cc21 (stereo not shown) [Lu 19-022-c] | 19 µmol/kg | 14 µmol/kg | 170 nM | – | – | – | –
CCN(CC)C1CC(c2ccc(Cl)c(Cl)c2)c2ccccc21 (stereo not shown) [Lu 18-188-c] | > 108 µmol/kg | – | – | 13 nM | – | – | 120 nM
CCN(CC)[C@@H]1C[C@@H](c2ccc(F)cc2)c2ccc(F)cc21 (relative stereo) [Lu 18-149-c] | 52 µmol/kg | – | 68 nM | 140 nM | – | – | –
CSc1ccc2c(c1)C(N(C)C)CC2c1ccc(F)cc1 (stereo not shown) [Lu 19-017-c] | 27 µmol/kg | 23 µmol/kg | 150 nM | < 1 nM | – | – | –
CN(C)[C@@H]1C[C@@H](c2ccc(N)cc2)c2ccc(F)cc21 (relative stereo) [Lu 19-021] | 9 µmol/kg | 15 µmol/kg | 190 nM | 330 nM | – | – | –
CCN(CC)[C@@H]1C[C@@H](c2ccc(F)cc2)c2ccc(C)cc21 (relative stereo) [Lu 18-200-c] | 63 µmol/kg | – | 210 nM | – | – | – | –
NC1CC(c2ccc(Cl)c(Cl)c2)c2ccccc21 (stereo not shown) [Lu 19-030-o] | 16 µmol/kg | > 27 µmol/kg | 7.4 nM | 15 nM | – | – | –
Cc1ccc2c(c1)C(N(C)C)CC2c1ccc(F)cc1 (stereo not shown) [Lu 18-119] | 45 µmol/kg | > 37 µmol/kg | 71 nM | 1.4 nM | – | – | –

Source: EP0076669A1, “Novel 3-phenyl-1-indanamines, pharmaceutical compositions and methods of preparation” (KEFALAS A/S, priority 1981, dated 1983)
